The text below walks through data of patent US9012433B2, “Substituted tetracycline compounds” (Paratek Pharmaceuticals, Inc., priority 2006, dated 2015).

For data set [1], the system named is carrageenan induced rat paw inflammation. Description: Rat carrageenan-induced paw edema inflammatory model. The class given is in vivo. The settings on record: IP, various doses, FIG. 1. On the procedure:
The model used a sub-plantar injection of carrageenan in the rat to induce an inflammatory response. The test compound or saline (control) was administered IP 30 minutes before a subplantar injection of carrageenan (1.5 mg/0.1 mL). Paw volume was measured […] before subplantar injection and again 3 hours after the injection of carrageenan using a plethysmometer. Significant differences as determined by a Kruskal-Wallis One Way ANOVA are noted between the inflammation of the untreated controls versus treated animals […]
In general terms: In the carrageenan paw model, swelling and tenderness develop within hours.

Data set [2] concerns S. pneumoniae 157E - Strep. Description: Antibacterial MIC, CLSI broth microdilution. The class given is cell-based. Conditions: Streptococcus pneumoniae, 157ESTREP; 35° C., 18-24 hours; lysed horse blood. In short, it runs like this:
(§1)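 CLSI broth microdilution in cation-supplemented Mueller Hinton broth, inoculum 1×10^5 cfu from 0.5 McFarland cultures diluted 1:200. Incubated 35° C in ambient air for 18-24 hours. Growth read spectrophotometrically and checked manually; MIC (μg/mL) is the lowest compound dilution inhibiting growth.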
For orientation: Dilution methods test growth across graded concentrations, often in twofold steps.

For the next data set, the system named is E. coli MG 1655. In words: Antibacterial MIC, CLSI broth microdilution. Conditions: Escherichia coli, MG1655; 35° C., 18-24 hours. The class given is cell-based. In short, it runs like this: as §1
In data set [3] the test system is S. aureus RN450. Description: Antibacterial MIC, CLSI broth microdilution. The class given is cell-based. Conditions: Staphylococcus aureus, RN450; 35° C., 18-24 hours. In short, it runs like this: as §1
The next data set relates to E. coli ATCC 25922. In words: Antibacterial MIC, CLSI broth microdilution. The class given is cell-based. The settings on record: Escherichia coli, ATCC25922; 35° C., 18-24 hours. In short, it runs like this:
as §1

The subject of a further data set is P. acnes ATCC 6919. In words: Antibacterial MIC, CLSI broth microdilution. The class given is cell-based. Conditions: Cutibacterium acnes, ATCC6919; 35° C., 18-24 hours. In outline:
as §1

Data set [4] has as its system B. thetaiotaomicron ATCC 29741. In words: Antibacterial MIC, CLSI broth microdilution. The settings on record: Bacteroides thetaiotaomicron, ATCC29741; 35° C., 18-24 hours; read-out: MIC B. thetaiotaomicron ATCC 29741. Format: cell-based.
The subject of another data set is P. acnes ATCC 11827. In words: Antibacterial MIC, CLSI broth microdilution. The class given is cell-based. The settings on record: Cutibacterium acnes, ATCC11827; 35° C., 18-24 hours. In outline:
as §1

A short description of another data set: in vitro. The class given is cell-based. In outline:
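COS-1 or CHO cells exposed to serial dilutions of test compound for 24 hours. Metabolic activity then read with resazurin (Alamar Blue): 2 hours incubation plus 30 minutes dark at room temperature, fluorescence ex 535/em 590 nm, treated versus control.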

Data set [5] relates to S. aureus RN450. Description: In vivo anti-bacterial activity, S. aureus model. The settings on record: Staphylococcus aureus, sc; mice, lethal IP S. aureus RN450, single subcutaneous dose 5 mg/kg, 24 hours; read-out: Percent Survival. The protocol: Groups of five mice were injected intraperitoneally with a lethal dose of S. aureus RN450 in a medium of mucin. Mice were evaluated at 24 hours to determine survival. […] In some instances, a dose response study was performed with the compound such that a PD50 (a dose of compound that protects 50% of the animals) could be calculated.

Values after ≈ are worked out from the molar mass of the structure shown.

One may read the MIC as the lowest concentration that inhibits growth of the organism. Broadly, the IC50 is the concentration at which inhibition is half-maximal.

On to `CCO/N=C(/C)c1ccc(O)c2c1C[C@H]1C[C@H]3[C@H](N(C)C)C(O)=C(C(N)=O)C(=O)[C@@]3(O)C(O)=C1C2=O` [A], for which the “modulation of carrageenan induced inflammation compared with doxycycline” value in data set [1] was “improved activity”. Moreover, the minimal inhibitory concentration (MIC) in [2] was less than 4 µg/mL; in the data set on E. coli MG 1655, 4 to 8 µg/mL (≈ 8.01 to 16 µM); in the data set on S. aureus RN450 [3], less than 4 µg/mL; against E. coli ATCC 25922 it was less than 4 µg/mL; in the data set with P. acnes ATCC 6919, less than 4 µg/mL; in data set [4] it was greater than 8 µg/mL. This compound also displayed a minimum inhibitory concentration (MIC) against P. acnes ATCC 11827 of less than 4 µg/mL. For the same compound, the half-maximal inhibitory concentration (IC50) at 24 h in “in vitro” (African green monkey) and in “in vitro” (Chinese hamster) was less than 35 µg/mL throughout. In the data set with S. aureus RN450 [5], the responders at 5 mg/kg is 100%.
